From patent publication US8980829B2, “Aryl glycoside compound, preparation method and use thereof” (Shanghai Yingli Science and Technology Co., Ltd, priority 2011, dated 2015)

What was measured:
[1] = biological target: human SGLT2 (Homo sapiens (Human), UniProt P31639); experiment: Uptake assay of [14C]-AMG in Flp-In CHO cells stably expressing human SGLT2; type: cell-based; conditions: for IC50: [14C]-AMG uptake, Flp-In CHO cells expressing human SGLT2, 1 hour at 37° C., n = 1-4; for Selectivity (SGLT1/SGLT2): ratio SGLT1 IC50 / SGLT2 IC50;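 on all read-outs here: uptake in Na+ containing KRH buffer with compounds added in 1% DMSO, radioactivity of lysed cells read by scintillation counting, SGLT1 tested the same way in matching Flp-In CHO cells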
human SGLT2, sequence (P31639 whole entry): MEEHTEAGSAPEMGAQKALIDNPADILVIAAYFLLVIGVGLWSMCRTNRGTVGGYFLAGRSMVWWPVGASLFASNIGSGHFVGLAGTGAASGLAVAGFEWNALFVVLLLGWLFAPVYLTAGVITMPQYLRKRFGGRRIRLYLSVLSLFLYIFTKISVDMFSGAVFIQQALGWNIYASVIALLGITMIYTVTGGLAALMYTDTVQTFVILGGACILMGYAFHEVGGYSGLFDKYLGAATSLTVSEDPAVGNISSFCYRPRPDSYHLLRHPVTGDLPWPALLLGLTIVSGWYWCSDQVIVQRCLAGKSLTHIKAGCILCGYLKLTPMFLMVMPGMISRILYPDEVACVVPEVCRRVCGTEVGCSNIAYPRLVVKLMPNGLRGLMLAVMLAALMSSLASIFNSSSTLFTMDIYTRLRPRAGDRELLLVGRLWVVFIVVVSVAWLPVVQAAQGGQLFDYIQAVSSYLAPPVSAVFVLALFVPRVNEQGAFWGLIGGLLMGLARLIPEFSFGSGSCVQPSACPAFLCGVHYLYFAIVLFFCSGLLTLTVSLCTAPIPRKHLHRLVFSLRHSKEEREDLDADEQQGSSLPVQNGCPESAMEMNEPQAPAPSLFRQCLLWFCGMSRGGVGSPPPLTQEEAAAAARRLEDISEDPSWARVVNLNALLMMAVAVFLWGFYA

[2] = biological target: human SGLT1 (Homo sapiens (Human), UniProt P13866); experiment: Uptake assay of [14C]-AMG in Flp-In CHO cells stably expressing human SGLT1; type: cell-based; conditions: [14C]-AMG uptake, Flp-In CHO cells expressing human SGLT1, 1 hour at 37° C., n = 1-4;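 further: uptake run in sodium-containing KRH buffer with compounds added in DMSO (1% final), cell radioactivity read by scintillation counting after lysis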
human SGLT1, sequence (P13866 whole entry): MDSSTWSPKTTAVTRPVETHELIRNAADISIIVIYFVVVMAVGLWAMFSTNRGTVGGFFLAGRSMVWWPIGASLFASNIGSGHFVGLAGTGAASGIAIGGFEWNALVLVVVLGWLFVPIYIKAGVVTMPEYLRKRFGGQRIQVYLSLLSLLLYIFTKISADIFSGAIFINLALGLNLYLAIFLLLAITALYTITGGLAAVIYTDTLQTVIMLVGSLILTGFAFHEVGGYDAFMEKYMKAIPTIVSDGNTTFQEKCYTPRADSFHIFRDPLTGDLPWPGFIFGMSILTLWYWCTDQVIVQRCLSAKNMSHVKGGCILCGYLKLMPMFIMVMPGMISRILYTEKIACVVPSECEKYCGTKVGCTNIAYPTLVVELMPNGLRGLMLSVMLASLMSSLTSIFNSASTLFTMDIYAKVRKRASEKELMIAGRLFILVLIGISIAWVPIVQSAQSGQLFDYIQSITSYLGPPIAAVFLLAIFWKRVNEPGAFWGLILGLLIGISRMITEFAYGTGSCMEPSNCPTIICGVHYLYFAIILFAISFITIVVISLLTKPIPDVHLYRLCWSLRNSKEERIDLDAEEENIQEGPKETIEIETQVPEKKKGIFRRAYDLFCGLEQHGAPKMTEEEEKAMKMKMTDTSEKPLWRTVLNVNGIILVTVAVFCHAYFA

[3] = tested on: C57 mice; experiment: Urinary glucose excretion test; type: in vivo; conditions: adult C57 mice, 10 mg/kg, 24-hours urine collection, average of 6 mice
Method: Urinary Glucose Excretion Test
Adult C57 mice administered the test compound (10 mg/kg) were placed in metabolism cages for 24-hours urine collection, and measure the total volume of urine. When the urine samples had been collected, they were immediately frozen in a −20° C. refrigerator, followed by detecting the glucose concentration in urine. Finally, the total glucose in animal urine was calculated according to the total urine volume. It was then converted into urinary glucose excretion (mg) per 200 g of body weight within 24 hours according to the weight of mice.

SMILES	IC50 [1] [nM]	Selectivity (SGLT1/SGLT2) [1]	IC50 [2] [nM]	Urine Glucose Excretion (mg/200 g BW/24 h) [3] [mg/200 g BW/24 h]
OC[C@H]1O[C@@H](c2ccc(Cl)c(Cc3ccc(OCC4CCO4)cc3)c2)[C@H](O)[C@@H](O)[C@@H]1O (single isomer, unassigned) [Compound 2]	8.7	188	1640	
OC[C@H]1O[C@@H](c2ccc(Cl)c(Cc3ccc(OCC4CCO4)cc3)c2)[C@H](O)[C@@H](O)[C@@H]1O (single isomer, unassigned) [Compound 3]	11.4	201	2290	
OC[C@H]1O[C@@H](c2ccc(Cl)c(Cc3ccc(OCC4CCO4)cc3)c2)[C@H](O)[C@@H](O)[C@@H]1O (single isomer, unassigned) [Compound 4]	4.9	295	1450	
CC1(COc2ccc(Cc3cc([C@@H]4O[C@H](CO)[C@@H](O)[C@H](O)[C@H]4O)ccc3Cl)cc2)COC1 [Compound 5]	8.3	95	792	1050
OC[C@H]1O[C@@H](c2ccc(Cl)c(Cc3ccc(CC4COC4)cc3)c2)[C@H](O)[C@@H](O)[C@@H]1O [Compound 6]	9.6	312	3000	735
OC[C@H]1O[C@@H](c2ccc(Cl)c(Cc3ccc(CCC4COC4)cc3)c2)[C@H](O)[C@@H](O)[C@@H]1O [Compound 7]	8.5	124	1060	
OC[C@H]1O[C@@H](c2ccc(Cl)c(Cc3ccc(OCC4(F)COC4)cc3)c2)[C@H](O)[C@@H](O)[C@@H]1O [Compound 12]	6.5	320	2080	1323
CC(C)(C)OC(=O)N1CC(COc2ccc(Cc3cc([C@@H]4O[C@H](CO)[C@@H](O)[C@H](O)[C@H]4O)ccc3Cl)cc2)C1 [Compound 13]	28.7	96	2760	
OC[C@H]1O[C@@H](c2ccc(Cl)c(Cc3ccc(CC4(F)COC4)cc3)c2)[C@H](O)[C@@H](O)[C@@H]1O [Compound 16]	8.1	306	2480	1441
CC(=O)N1CC(COc2ccc(Cc3cc([C@@H]4O[C@H](CO)[C@@H](O)[C@H](O)[C@H]4O)ccc3Cl)cc2)C1 [Compound 17]	6.4	73	469	180
OC[C@H]1O[C@@H](c2ccc(Cl)c(Cc3ccc(OCC4CN(C5COC5)C4)cc3)c2)[C@H](O)[C@@H](O)[C@@H]1O [Compound 18]	22	111	2450	
OC[C@H]1O[C@@H](c2ccc(Cl)c(Cc3ccc(OCC4CN(c5ccc(F)cc5)C4)cc3)c2)[C@H](O)[C@@H](O)[C@@H]1O [Compound 19]	97.2	21	1990	
OC[C@H]1O[C@@H](c2ccc(Cl)c(Cc3ccc(OCC4(CF)COC4)cc3)c2)[C@H](O)[C@@H](O)[C@@H]1O [Compound 20]	3.7	690	2550	751
OC[C@H]1O[C@@H](c2ccc(Cl)c(Cc3ccc(OCCCC4(F)COC4)cc3)c2)[C@H](O)[C@@H](O)[C@@H]1O [Compound 23]	1.1	1089	1200	1198
CCOc1ccc(Cc2cc([C@@H]3O[C@H](CO)[C@@H](O)[C@H](O)[C@H]3O)c(OCC3(F)COC3)cc2Cl)cc1 [Compound 24]	12	1424	17100	
CCOc1ccc(Cc2cc([C@@H]3O[C@H](CO)[C@@H](O)[C@H](O)[C@H]3O)c(OCCCC3(F)COC3)cc2Cl)cc1 [Compound 25]	12.3	1559	18800	
CCOc1ccc(Cc2cc([C@@H]3O[C@H](CO)[C@@H](O)[C@H](O)[C@H]3O)c(OCC3CNC3)cc2Cl)cc1 [Compound 26]	69.4	28	1950	
OC[C@H]1O[C@@H](c2ccc(Cl)c(Cc3ccc(OC4CCOC4)cc3)c2)[C@H](O)[C@@H](O)[C@@H]1O (some centres unmarked) [EMPAGLIFLOZIN, reference compound]				1197

Now from value to compound, other results behind:

IC50 [1] [nM]	Selectivity (SGLT1/SGLT2) [1]	IC50 [2] [nM]	SMILES	Urine Glucose Excretion (mg/200 g BW/24 h) [3] [mg/200 g BW/24 h]
5.6	471	2640	OC[C@H]1O[C@@H](c2ccc(Cl)c(Cc3ccc(OCC4COC4)cc3)c2)[C@H](O)[C@@H](O)[C@@H]1O [Compound 1]	1333
1.7	547	930	OC[C@H]1O[C@@H](c2ccc(Cl)c(Cc3ccc(OCCC4COC4)cc3)c2)[C@H](O)[C@@H](O)[C@@H]1O [Compound 8]	
7.5	159	1190	OC[C@H]1O[C@@H](c2ccc(Cl)c(Cc3ccc(OCCC4(F)COC4)cc3)c2)[C@H](O)[C@@H](O)[C@@H]1O [Compound 9]	1079
7.4	176	1300	OC[C@H]1O[C@@H](c2ccc(Cl)c(Cc3ccc(OCCC4CSC4)cc3)c2)[C@H](O)[C@@H](O)[C@@H]1O [Compound 10]	740
6.8	150	1020	[O-][S+]1CC(CCOc2ccc(Cc3cc([C@@H]4O[C@H](CO)[C@@H](O)[C@H](O)[C@H]4O)ccc3Cl)cc2)C1 (some centres unmarked) [Compound 11]	
8.4	93	785	OC[C@H]1O[C@@H](c2ccc(Cl)c(Cc3ccc(OCC4CNC4)cc3)c2)[C@H](O)[C@@H](O)[C@@H]1O [Compound 14]	
23.6	62	1460	CN1CC(COc2ccc(Cc3cc([C@@H]4O[C@H](CO)[C@@H](O)[C@H](O)[C@H]4O)ccc3Cl)cc2)C1 [Compound 15]	
1.7	2911	4950	OC[C@H]1O[C@@H](c2ccc(Cl)c(Cc3ccc(OCCCC4COC4)cc3)c2)[C@H](O)[C@@H](O)[C@@H]1O [Compound 22]	
